The values below come from ChEMBL document CHEMBL3808389, “Stable and biocompatible cystine knot peptides from the marine sponge Asteropus sp” (Bioorg Med Chem, 2016).

Structures are written as SMILES. Where a SMILES comes first, the peptide text is derived from it. Bridges are numbered along the chain shown (N, C = ends). [ ]: non-standard residue; d: D form. ξ: configuration not given here. ξpGlu = O=C1CCC(C(=O)O)N1

Series [1] can be described thus: Thermal stability in Tris-acetate-EDTA buffer of pH 8.3 at 100 degC measured upto 12 hrs by reverse-phase HPLC analysis. The conditions noted are these: pH 8.3, 12 h. In kind it is physicochemical.
Series [2] in a line: Toxicity in human RBC assessed as hemolytic activity at 50 uM measured after 1 hr by spectrophotometric analysis. As to conditions: for Activity: erythrocyte, 1 h, 50 µM. It is filed as cell-based, Erythrocyte.
The test system of a further series is Plasma. The series can be described thus: Metabolic stability in human plasma at 37 degC measured upto 12 hrs by reverse-phase HPLC analysis. In kind it is ADME, cell-free.
The nature of series [3]: Thermal stability of the compound in phosphate buffer of pH 7.4 at 50 ug at 100 degC assessed as conformation changes by measuring changes in short wavelength region (195 nanometer) by CD analysis. It is filed as physicochemical.
The nature of series [4]: Thermal stability of the compound in phosphate buffer of pH 7.4 at 50 ug at 25 degC by CD analysis. In kind it is physicochemical.
Series [5] can be described thus: Toxicity in Thamnaconus modestus RBC assessed as hemolytic activity at 0.08 to 50 uM measured after 1 hr by spectrophotometric analysis. As to conditions: erythrocyte. It is filed as cell-based.
The nature of series [6]: Chemical stability assessed as trypsin (unknown origin)-mediated degradation in simulated human intestinal fluid at 37 degC measured up to 12 hrs by reverse-phase HPLC analysis. The conditions noted are these: simulated gi fluid. It is filed as ADME, physicochemical.
Series [7] in a line: Chemical stability assessed as chymotrypsin (unknown origin)-mediated degradation in simulated human intestinal fluid at 37 degC measured up to 12 hrs by reverse-phase HPLC analysis. In kind it is ADME, physicochemical. The conditions noted are these: simulated gi fluid.
The nature of series [8]: Chemical stability assessed as pepsin (unknown origin)-mediated degradation in simulated human intestinal fluid at 37 degC measured up to 12 hrs by reverse-phase HPLC analysis. It is filed as ADME, physicochemical. The conditions noted are these: simulated gi fluid.
Series [9] in a line: Chemical stability assessed as elastase (unknown origin)-mediated degradation in simulated human intestinal fluid at 37 degC measured up to 12 hrs by reverse-phase HPLC analysis. It is filed as ADME, physicochemical. The conditions noted are these: simulated gi fluid.
Series [10] has as its system RAW264.7. In words: Cytotoxicity against mouse RAW264.7 cells assessed as cell viability at 10 or 40 ug/ml measured after 24 hrs by WST assay. In kind it is cell-based. As to conditions: raw264.7, 24 h.
Series [11] deals with RAW264.7. The series can be described thus: Toxicity in mouse RAW264.7 cells assessed as in induction of Nitric oxide production at 10 or 40 ug/ml measured after 24 hrs by Griess reaction method. The conditions noted are these: raw264.7, 24 h. In kind it is cell-based.
Series [12] in a line: Cytotoxicity against rat Ac2F cells at 30 uM. In kind it is cell-based.

For `CC(C)C[C@@H]1NC(=O)CNC(=O)[C@H](CC(N)=O)NC(=O)[C@H](CCCNC(=N)N)NC(=O)[C@H]([C@@H](C)O)NC(=O)[C@@H]2CSSC[C@@H]3NC(=O)[C@H]([C@@H](C)O)NC(=O)CNC(=O)CNC(=O)[C@H](C(C)C)NC(=O)[C@@H]4CSSC[C@H](NC(=O)[C@H]([C@@H](C)O)NC(=O)[C@H](CSSC[C@H](NC(=O)[C@H](C(C)C)NC(=O)[C@@H]5CCCN5C1=O)C(=O)NCC(=O)N[C@@H](CCC(=O)O)C(=O)N[C@@H]([C@@H](C)O)C(=O)N4)NC(=O)CNC(=O)[C@@H]1CCCN1C(=O)[C@H]([C@@H](C)O)NC(=O)[C@H](CC(N)=O)NC3=O)C(=O)N[C@@H](CO)C(=O)N[C@@H](Cc1c[nH]c3ccccc13)C(=O)N1CCC[C@H]1C(=O)N[C@@H](C(C)C)C(=O)N2`, the Stability result in series [1] is reported as “Stable”. For the same molecule, the hemolysis at 1 h, 50 µM in series [2] (red blood cells, read-out: Activity) came to 74%.
Take `CC[C@H](C)[C@@H]1NC(=O)[C@H](CC(C)C)NC(=O)CNC(=O)[C@H](CC(=O)O)NC(=O)[C@@H]2CSSC[C@H](NC(=O)[C@H](Cc3c[nH]c4ccccc34)NC(=O)C3CCC(=O)N3)C(=O)N[C@@H](C)C(=O)N[C@@H](CCC(=O)O)C(=O)N[C@@H](CCC(=O)O)C(=O)NCC(=O)N[C@@H](CCC(=O)O)C(=O)N[C@@H](CO)C(=O)N[C@H]3CSSC[C@H](NC1=O)C(=O)N[C@@H](Cc1ccc(O)cc1)C(=O)N1CCC[C@H]1C(=O)N[C@@H]([C@@H](C)O)C(=O)N[C@@H](Cc1ccccc1)C(=O)N1CCC[C@H]1C(=O)N[C@@H](CCC(=O)O)C(=O)N1CCC[C@H]1C(=O)N[C@@H]([C@@H](C)CC)C(=O)N[C@H](C(=O)NCC(=O)N[C@H](C(=O)O)C(C)C)CSSC[C@H](NC(=O)[C@@H]1CCCN1C(=O)[C@H](Cc1ccc(O)cc1)NC(=O)[C@H](C(C)C)NC(=O)[C@H](CCC(=O)O)NC3=O)C(=O)N2` (stereo not given in full) ([ξpGlu]WCAEEGESCEVYPCCDGLICYPTFPEPICGV-OH; disulfide 3-16, 10-21, 15-30): the Stability result was “Stable” in the series with Plasma; “Unstable” in series [3]; “Stable” in series [4]; “Stable” in series [6]; “Stable” in [7]; “Stable” in series [8]. For the same molecule, in series [9], the Stability result is “Stable”. Also, the Activity result in series [2] and in [5] was “Non-toxic” throughout.
For the molecule `CC[C@H](C)[C@@H]1NC(=O)[C@@H]2CSSC[C@@H]3NC(=O)[C@H](CO)NC(=O)[C@H](CCC(=O)O)NC(=O)CNC(=O)[C@H](CCC(=O)O)NC(=O)[C@H](Cc4ccccc4)NC(=O)[C@H](C)NC(=O)[C@@H](NC(=O)CNC(=O)C4CCC(=O)N4)CSSC[C@H](NC(=O)[C@H](CSSC[C@@H](C(=O)N[C@@H](Cc4ccc(O)cc4)C(=O)N[C@@H](Cc4ccc(O)cc4)C(=O)N[C@@H](CC(C)C)C(=O)O)NC(=O)[C@H]([C@@H](C)O)NC(=O)CNC(=O)[C@H](CC(=O)O)NC(=O)[C@@H]4CCCN4C(=O)[C@H](CC(N)=O)NC(=O)CNC(=O)[C@@H]4CCCN4C1=O)NC(=O)[C@@H]1CCCN1C(=O)[C@H](Cc1ccc(O)cc1)NC(=O)[C@H](Cc1ccccc1)NC(=O)[C@H](CCC(=O)O)NC(=O)[C@H](C(C)C)NC(=O)[C@H](CC(N)=O)NC3=O)C(=O)N1CCC[C@H]1C(=O)NCC(=O)N[C@@H](CC(C)C)C(=O)NCC(=O)N[C@@H](CC(C)C)C(=O)N[C@@H]([C@@H](C)O)C(=O)N2` (stereo not given in full) ([ξpGlu]GCAFEGESCNVEFYPCCPGLGLTCIPGNPDGTCYYL-OH; disulfide 3-18, 10-25, 17-34), the Activity result in [2] and in series [5] was “Non-toxic” each time.
Take `CC[C@H](C)[C@H](NC(=O)[C@@H](NC(=O)[C@H](Cc1ccc(O)cc1)NC(=O)[C@@H]1CSSC[C@@H]2NC(=O)[C@@H]3CCCN3C(=O)[C@H](CC(N)=O)NC(=O)[C@H](Cc3ccccc3)NC(=O)[C@H](CCC(=O)O)NC(=O)[C@H](C(C)C)NC(=O)[C@H](CC(=O)O)NC(=O)[C@@H]3CSSC[C@H](NC(=O)[C@H]([C@H](C)O)NC(=O)[C@H](CC(C)C)NC(=O)[C@@H]4CCCN4C(=O)[C@@H]4CCCN4C(=O)[C@H](CSSC[C@H](N)C(=O)N4CCC[C@H]4C(=O)NCC(=O)N[C@@H](CCC(=O)O)C(=O)NCC(=O)N[C@@H](CCC(=O)O)C(=O)N[C@@H](CCC(N)=O)C(=O)N3)NC2=O)C(=O)N[C@@H]([C@@H](C)CC)C(=O)N2CCC[C@H]2C(=O)NCC(=O)N[C@@H](CC(=O)O)C(=O)N2CCC[C@H]2C(=O)N[C@@H](Cc2ccc(O)cc2)C(=O)NCC(=O)N[C@@H]([C@@H](C)CC)C(=O)N1)[C@@H](C)CC)C(=O)O`: the Stability result in [1] is “Stable”. The Activity entry (in [2]; in series [5]; in the series on RAW264.7 [10]; in the series with RAW264.7 [11]) was “Non-toxic” each time.
With `CC[C@H](C)[C@@H]1NC(=O)CNC(=O)CNC(=O)[C@@H]2CCCN2C(=O)[C@H](CC(=O)O)NC(=O)CNC(=O)[C@@H]2CCCN2C(=O)[C@H](Cc2ccc(O)cc2)NC(=O)[C@@H]2CSSC[C@@H]3NC(=O)[C@H](CCC(=O)O)NC(=O)[C@H](CCC(=O)O)NC(=O)CNC(=O)[C@@H]4CCCN4C(=O)CNC(=O)[C@H](C)NC(=O)[C@@H](NC(=O)CNC(=O)C4CCC(=O)N4)CSSC[C@H](NC(=O)[C@H](CSSC[C@@H](C(=O)N[C@@H](Cc4ccc(O)cc4)C(=O)O)NC1=O)NC(=O)[C@H](CC(=O)O)NC(=O)[C@H](Cc1ccc(O)cc1)NC(=O)[C@H](Cc1ccccc1)NC(=O)CNC(=O)[C@H](C(C)C)NC(=O)[C@H]([C@@H](C)CC)NC3=O)C(=O)N1CCC[C@H]1C(=O)NCC(=O)N[C@@H](Cc1ccc(O)cc1)C(=O)N[C@@H](CCCNC(=N)N)C(=O)N2` (stereo not given in full) ([ξpGlu]GCAGPGEECIVGFYDCCPGYRCYPGDPGGICY-OH; disulfide 3-18, 10-23, 17-32), the Activity entry (in series [2]; in series [5]; with RAW264.7 [10]; in the series with RAW264.7 [11]) was “Non-toxic” each time.
In the case of `CC[C@H](C)[C@H](NC(=O)[C@@H](NC(=O)[C@H](Cc1ccc(O)cc1)NC(=O)[C@@H]1CSSC[C@@H]2NC(=O)[C@@H]3CCCN3C(=O)[C@H](CC(N)=O)NC(=O)[C@H](Cc3ccccc3)NC(=O)[C@H](CCC(=O)O)NC(=O)[C@H](C(C)C)NC(=O)[C@H](CC(=O)O)NC(=O)[C@@H]3CSSC[C@H](NC(=O)[C@H]([C@@H](C)O)NC(=O)[C@H](CC(C)C)NC(=O)[C@@H]4CCCN4C(=O)[C@@H]4CCCN4C(=O)[C@H](CSSC[C@H](N)C(=O)N4CCC[C@H]4C(=O)NCC(=O)N[C@@H](CCC(=O)O)C(=O)NCC(=O)N[C@@H](CCC(=O)O)C(=O)N[C@@H](CCC(=O)O)C(=O)N3)NC2=O)C(=O)N[C@@H]([C@@H](C)CC)C(=O)N2CCC[C@H]2C(=O)NCC(=O)N[C@@H](CC(=O)O)C(=O)N2CCC[C@H]2C(=O)N[C@@H](Cc2ccc(O)cc2)C(=O)NCC(=O)N[C@@H]([C@@H](C)CC)C(=O)N1)[C@@H](C)CC)C(=O)O` (H-CPGEGEECDVEFNPCCPPLTCIPGDPYGICYII-OH; disulfide 1-16, 8-21, 15-30), the Stability entry in the series with Plasma was “Stable”; in [3], “Unstable”; in series [4], “Stable”; in series [1], “Stable”; in series [6], “Stable”; in series [7], “Stable”. Besides, the Stability entry in [8] and in [9] was “Stable” in each case. Besides, the Activity result (in series [2]; in series [5]; with RAW264.7 [10]; in the series on RAW264.7 [11]; in series [12]) was “Non-toxic” each time.
